# Assays:
# PC3 cells = assay: MTT assay, cytotoxic activity; assay type: cell-based, human; conditions: MTT, 72 h
# How it was run: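 Cytotoxicity readout: relative MTT level (%), i.e. absorbance of compound-treated PC3 cells divided by that of untreated controls, ×100. Cultures were kept in a humidified 37 °C, 5% CO2 incubator.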
# [1] = system: IL-6 level in HaCaT cells; assay: Interleukin-6 ELISA; assay type: cell-based, human; conditions: IC50 concentration, 72 h
# Description: (§1) The level of interleukin-6 (IL-6) in PC3 and HaCaT cell lines was measured by commercial human IL-6 ELISA kits Diaclon SAS (Besancon Cedex, France). […] The untreated cells were used as the control. The IL-6 level in a cell culture supernatant was measured using an enzyme-linked immunosorbent assay in accordance with the manufacturer’s instruction. The experiment was repeated three times.
# IL-6 level in PC3 cells = assay: Interleukin-6 ELISA; assay type: cell-based, human; conditions: PC3, IC50 concentration, 72 h
# Description: as §1
# P. aeruginosa ATCC 15442 = assay: Bacterial growth curve assay (OD600, 18 h); assay type: cell-based, Pseudomonas aeruginosa; conditions: P. aeruginosa
# S. aureus ATCC 6538 = assay: Bacterial growth curve assay (OD600, 18 h); assay type: cell-based, Staphylococcus aureus; conditions: S. aureus ATCC 6538, 0.1 μg/mL
# [2] = system: E. coli ATCC 25922 biofilm; assay: Biofilm eradication assay (crystal violet); assay type: cell-based, Escherichia coli; conditions: 4 MIC
# Description: (§2) Three bacterial strains E. coli ATCC 25922, P. aeruginosa ATCC 15442, and S. aureus ATCC 6538 were used to assign biofilm eradication properties of compounds 5, 10, 11, and CP as the reference drug. To quantify the biomass of the bacteria biofilm, the crystal violet method was used with some modifications.[52] The bacteria were incubated to the mid-log phase, diluted to 103 cfu/mL in brain–heart infusion medium, and seeded in a 96-well plate. Bacterial biofilms were formed by overnight incubation at 37 °C with rotation at 140 rpm. After biofilm formation, all wells were washed with PBS to remove nonadherent bacteria cells. […] The biofilms with tested substances were incubated for 20 h at 37 °C with shaking at 140 rpm. The bacterial biofilm was stained with 0.1% (v/v) CV for 10 min. Afterward, the biofilm was rinsed with PBS and dried. To solubilize the adsorbed crystal violet, wells with stained biofilms were incubated in 30% acetic acid. To estimate the total biofilm biomass, optical density (OD) of the resulting solution was measured at 595 nm. Biofilm assays were repeated at least three times on different days, with two technical replicates assessed each time. A minimum eradication concentration (MBEC) was determined as the lowest concentration of compound, which could damage ≥50% of the formed biofilm structure.
# [3] = system: S. aureus ATCC 6538 biofilm; assay: Biofilm eradication assay (crystal violet); assay type: cell-based, Staphylococcus aureus; conditions: 4–2 MIC
# Description: as §2
structure (smiles),measurement,setting,value
"O=C(O)c1cn(C2CC2)c2cc(N3CCNCC3)c(F)cc2c1=O [CP, ciprofloxacin, reference compound]",IC50,"PC3 cells; Homo sapiens, PC-3, 72 h",> 100 µM
same,IC50,PC3 cells,100 ± 3.6 µM
same,effect on IL-6 in human keratinocytes,[1],stimulated human keratinocytes to produce IL-6
same,decrease of IL-6 release as compared to the control,IL-6 level in PC3 cells,2.4 times
same,lag phase elongated up to,P. aeruginosa ATCC 15442; 0.05 μg/mL,up to 14 h
same,elongation of the exponential phase to,P. aeruginosa ATCC 15442; 0.03–0.006 μg/mL,9 h
same,bacterial growth limited up to,S. aureus ATCC 6538,up to 12 h
same,eradication of the biofilm formed by E. coli,[2],approx. 20%
same,elimination of the mature biofilm of S. aureus ATCC 6538,[3],19–25%

# Reference: PMC10233829 (ACS Omega, 2023)
